Test results published in article PMC5218480 (PLoS ONE, 2017).

System: MV-4-11 cells
Assay: Gene expression microarray analysis (Affymetrix PrimeView) and GSEA
Assay type: cell-based, human
Set-up: RFU PODN (11730768_x_at) / Fold change /veh PODN (11730768_x_at) / RFU LINC00158 (11744669_a_at) / Fold change /veh LINC00158 (11744669_a_at) / RFU DUSP10 (11751237_a_at) / Fold change /veh DUSP10 (11751237_a_at) / RFU ID3 (11757404_x_at) / Fold change /veh ID3 (11757404_x_at) / RFU PLEKHG5 (11737974_s_at) / Fold change /veh PLEKHG5 (11737974_s_at) / RFU LRRC4B (11730491_at) / Fold change /veh LRRC4B (11730491_at) / RFU GIMAP4 (11747438_a_at) / Fold change /veh GIMAP4 (11747438_a_at) / RFU KRT8 (11758183_x_at) / Fold change /veh KRT8 (11758183_x_at) / RFU CNN1 (11734310_a_at) / Fold change /veh CNN1 (11734310_a_at) / RFU VPS37D (11726825_at) / Fold change /veh VPS37D (11726825_at) / RFU C10orf10 (11716522_x_at) / Fold change /veh C10orf10 (11716522_x_at) / RFU KIR2DL2 /// KIR2DL4 /// KIR2DL5A /// KIR2DL5B /// KIR2DS1 /// KIR2DS2 /// KIR2DS3 /// KIR2DS4 /// KIR3DL3 /// KIR3DL3 /// KIR3DS1 (11738374_at) / Fold change /veh KIR2DL2 /// KIR2DL4 /// KIR2DL5A /// KIR2DL5B /// KIR2DS1 /// KIR2DS2 /// KIR2DS3 /// KIR2DS4 /// KIR3DL3 /// KIR3DL3 /// KIR3DS1 (11738374_at) / RFU C1QL1 (11718748_at) / Fold change /veh C1QL1 (11718748_at) / RFU TMPRSS4 (11747572_a_at) / Fold change /veh TMPRSS4 (11747572_a_at) / RFU HAMP (11756126_x_at) / Fold change /veh HAMP (11756126_x_at) / RFU RNFT2 (11725882_a_at) / Fold change /veh RNFT2 (11725882_a_at) / RFU NR4A2 (11747474_a_at) / Fold change /veh NR4A2 (11747474_a_at) / RFU ABCC12 (11746883_a_at) / Fold change /veh ABCC12 (11746883_a_at) / RFU TMEM136 (11760407_x_at) / Fold change /veh TMEM136 (11760407_x_at) / RFU CLDN22 /// WWC2 (11732394_at) / Fold change /veh CLDN22 /// WWC2 (11732394_at) / RFU HLA-DPB1 (11760878_x_at) / Fold change /veh HLA-DPB1 (11760878_x_at) / RFU SPINT1 (11716480_a_at) / Fold change /veh SPINT1 (11716480_a_at) / RFU GAP43 (11754022_s_at) / Fold change /veh GAP43 (11754022_s_at) / RFU A4GNT (11735810_at) / Fold change /veh A4GNT (11735810_at) / RFU PRB3 (11715151_x_at) / Fold change /veh PRB3 (11715151_x_at) / RFU TUBB4B (11761932_at) / Fold change /veh TUBB4B (11761932_at) / RFU CAPN14 (11732068_a_at) / Fold change /veh CAPN14 (11732068_a_at) / RFU TMCC2 (11721928_a_at) / Fold change /veh TMCC2 (11721928_a_at) / RFU IRGQ (11745062_a_at) / Fold change /veh IRGQ (11745062_a_at) / RFU FAM174B (11720279_a_at) / Fold change /veh FAM174B (11720279_a_at) / RFU TMPRSS4 (11748680_a_at) / Fold change /veh TMPRSS4 (11748680_a_at) / RFU FAM212B (11763350_a_at) / Fold change /veh FAM212B (11763350_a_at) / RFU PLEKHG5 (11743358_a_at) / Fold change /veh PLEKHG5 (11743358_a_at) / RFU ZSCAN30 (11745921_a_at) / Fold change /veh ZSCAN30 (11745921_a_at) / RFU CMKLR1 (11741424_a_at) / Fold change /veh CMKLR1 (11741424_a_at) / RFU LOC101060620 /// MAPK8IP1 (11723275_at) / Fold change /veh LOC101060620 /// MAPK8IP1 (11723275_at) / RFU SPTSSB (11747773_x_at) / Fold change /veh SPTSSB (11747773_x_at) / RFU PRSS12 (11739890_at) / Fold change /veh PRSS12 (11739890_at) / RFU BIN1 (11741810_x_at) / Fold change /veh BIN1 (11741810_x_at) / RFU WNT11 (11732464_a_at) / Fold change /veh WNT11 (11732464_a_at) / RFU C10orf10 (11716521_a_at) / Fold change /veh C10orf10 (11716521_a_at) / RFU C5orf56 (11738089_at) / Fold change /veh C5orf56 (11738089_at) / RFU CYB561 (11721691_x_at) / Fold change /veh CYB561 (11721691_x_at) / RFU ANKRD19P (11752326_a_at) / Fold change /veh ANKRD19P (11752326_a_at) / RFU OR2T12 /// OR2T33 /// OR2T8 (11738714_s_at) / Fold change /veh OR2T12 /// OR2T33 /// OR2T8 (11738714_s_at) / RFU VCAN (11748164_a_at) / Fold change /veh VCAN (11748164_a_at) / RFU JSRP1 (11732532_at) / Fold change /veh JSRP1 (11732532_at) / RFU KRTAP10-11 (11738290_x_at) / Fold change /veh KRTAP10-11 (11738290_x_at) / RFU MYO3A (11730013_a_at) / Fold change /veh MYO3A (11730013_a_at) / RFU EBF3 (11725865_a_at) / Fold change /veh EBF3 (11725865_a_at) / RFU CAMK2N1 (11719241_x_at) / Fold change /veh CAMK2N1 (11719241_x_at) / RFU C5orf56 (11738088_a_at) / Fold change /veh C5orf56 (11738088_a_at) / RFU OLFML3 (11715873_a_at) / Fold change /veh OLFML3 (11715873_a_at) / RFU LOC100653217 /// NTM (11731650_a_at) / Fold change /veh LOC100653217 /// NTM (11731650_a_at) / RFU MAPK11 (11762145_a_at) / Fold change /veh MAPK11 (11762145_a_at) / RFU FIZ1 (11724087_x_at) / Fold change /veh FIZ1 (11724087_x_at) / RFU OASL (11726364_x_at) / Fold change /veh OASL (11726364_x_at) / RFU SOX15 (11748057_x_at) / Fold change /veh SOX15 (11748057_x_at) / RFU CD79A (11719716_a_at) / Fold change /veh CD79A (11719716_a_at) / RFU HIST1H1D (11736915_at) / Fold change /veh HIST1H1D (11736915_at) / RFU CASKIN2 (11723855_a_at) / Fold change /veh CASKIN2 (11723855_a_at) / RFU LOC730098 (11760151_x_at) / Fold change /veh LOC730098 (11760151_x_at) / RFU OR4N2 (11742367_at) / Fold change /veh OR4N2 (11742367_at) / RFU PRRT2 (11749266_a_at) / Fold change /veh PRRT2 (11749266_a_at) / RFU SNX32 (11753110_a_at) / Fold change /veh SNX32 (11753110_a_at) / RFU CDHR5 (11726645_a_at) / Fold change /veh CDHR5 (11726645_a_at) / RFU RCAN1 (11760418_a_at) / Fold change /veh RCAN1 (11760418_a_at) / RFU FAM167A (11723789_a_at) / Fold change /veh FAM167A (11723789_a_at) / RFU FAM26E (11764081_at) / Fold change /veh FAM26E (11764081_at) / RFU ISYNA1 (11749810_s_at) / Fold change /veh ISYNA1 (11749810_s_at) / RFU ACY1 (11761880_at) / Fold change /veh ACY1 (11761880_at) / RFU 11764098_at / Fold change /veh 11764098_at / RFU SAMD14 (11745864_x_at) / Fold change /veh SAMD14 (11745864_x_at) / RFU NPB (11741838_a_at) / Fold change /veh NPB (11741838_a_at) / RFU TMPRSS6 (11731388_a_at) / Fold change /veh TMPRSS6 (11731388_a_at) / RFU KRTAP10-2 (11738614_at) / Fold change /veh KRTAP10-2 (11738614_at) / RFU ARHGAP8 /// PRR5-ARHGAP8 (11727945_x_at) / Fold change /veh ARHGAP8 /// PRR5-ARHGAP8 (11727945_x_at) / RFU KRTAP5-7 /// NADSYN1 (11734609_at) / Fold change /veh KRTAP5-7 /// NADSYN1 (11734609_at) / RFU RASL12 (11751679_a_at) / Fold change /veh RASL12 (11751679_a_at) / RFU CDKN2B (11736163_a_at) / Fold change /veh CDKN2B (11736163_a_at) / RFU PRF1 (11729649_at) / Fold change /veh PRF1 (11729649_at) / RFU, ZNF638 /// ZNF638-IT1 / Fold change vs veh, ZNF638 /// ZNF638-IT1 / RFU, PANK3 / Fold change vs veh, PANK3 / RFU, SH3YL1 / Fold change vs veh, SH3YL1 / RFU, ZEB2 / Fold change vs veh, ZEB2 / RFU, NRIP1 / Fold change vs veh, NRIP1 / RFU, PTTG1IP / Fold change vs veh, PTTG1IP / RFU, CAPN2 / Fold change vs veh, CAPN2 / RFU, MED14 / Fold change vs veh, MED14 / RFU, SNORA58 / Fold change vs veh, SNORA58 / RFU, C1orf63 / Fold change vs veh, C1orf63 / RFU, LRRFIP1 / Fold change vs veh, LRRFIP1 / RFU, NDUFAF7 / Fold change vs veh, NDUFAF7 / RFU, SLC12A2 / Fold change vs veh, SLC12A2 / RFU, IBTK / Fold change vs veh, IBTK / RFU, ESF1 / Fold change vs veh, ESF1 / Fold change vs veh, TMEM50B / RFU, TAOK1 / Fold change vs veh, TAOK1 / RFU, ACBD3 / Fold change vs veh, ACBD3 / RFU, TMA16 / Fold change vs veh, TMA16 / RFU, RWDD3 / Fold change vs veh, RWDD3 / RFU, BCAT1 / Fold change vs veh, BCAT1 / RFU, EDEM3 / Fold change vs veh, EDEM3 / RFU, TMEM33 / Fold change vs veh, TMEM33 / RFU, WDR75 / Fold change vs veh, WDR75 / RFU, AHCTF1 / Fold change vs veh, AHCTF1 / RFU, TFRC / Fold change vs veh, TFRC / RFU, ZDHHC17 / Fold change vs veh, ZDHHC17 / RFU, NOM1 / Fold change vs veh, NOM1 / RFU, ARL8B / Fold change vs veh, ARL8B / RFU, ZBTB11 / Fold change vs veh, ZBTB11 / RFU, TAMM41 / Fold change vs veh, TAMM41 / RFU, KIAA1704 /// LOC100996395 / Fold change vs veh, KIAA1704 /// LOC100996395 / RFU, ING1 / Fold change vs veh, ING1 / RFU, TRMT61B / Fold change vs veh, TRMT61B / RFU, FUBP3 / Fold change vs veh, FUBP3 / RFU, TP53 / Fold change vs veh, TP53 / RFU, TNKS2 / Fold change vs veh, TNKS2 / RFU, ZFP14 / Fold change vs veh, ZFP14 / RFU, ACTR2 / Fold change vs veh, ACTR2 / RFU, PPP3R1 / Fold change vs veh, PPP3R1 / RFU, PIK3R1 / Fold change vs veh, PIK3R1 / RFU, HNRNPA1 / Fold change vs veh, HNRNPA1 / RFU, RNF170 / Fold change vs veh, RNF170 / RFU, ZNF28 / Fold change vs veh, ZNF28 / RFU, RNGTT / Fold change vs veh, RNGTT / RFU, OGT / Fold change vs veh, OGT / RFU, BRD1 / Fold change vs veh, BRD1 / RFU, MARS / Fold change vs veh, MARS / RFU, ZNF655 / Fold change vs veh, ZNF655 / RFU, FAHD1 / Fold change vs veh, FAHD1 / RFU, BDP1 / Fold change vs veh, BDP1 / RFU, LRRCC1 / Fold change vs veh, LRRCC1 / RFU, ARID1A / Fold change vs veh, ARID1A / RFU, ZNF146 / Fold change vs veh, ZNF146 / RFU, ZNF330 / Fold change vs veh, ZNF330 / RFU, GPN3 / Fold change vs veh, GPN3 / RFU, C9orf123 / Fold change vs veh, C9orf123 / RFU, N4BP2L2 / Fold change vs veh, N4BP2L2 / RFU, ARFIP1 / Fold change vs veh, ARFIP1 / RFU, FAM179B / Fold change vs veh, FAM179B / RFU, BCL10 / Fold change vs veh, BCL10 / RFU, UHRF1BP1L / Fold change vs veh, UHRF1BP1L / RFU, BET1 / Fold change vs veh, BET1 / RFU, CNOT2 / Fold change vs veh, CNOT2 / RFU, ZNF268 / Fold change vs veh, ZNF268 / Fold change vs veh, ZNF507 / RFU, DGCR2 / Fold change vs veh, DGCR2 / RFU, WDSUB1 / Fold change vs veh, WDSUB1 / Fold change vs veh, HSP90B1 /// MIR3652 / RFU, ADSS / Fold change vs veh, ADSS / RFU, GK / Fold change vs veh, GK / RFU, ZNF148 / Fold change vs veh, ZNF148 / RFU, TAF9 / Fold change vs veh, TAF9 / RFU, SLC1A5 / Fold change vs veh, SLC1A5 / RFU, SLMO2 / Fold change vs veh, SLMO2 / RFU, ABCC4 / Fold change vs veh, ABCC4 / RFU, LOC101060439 /// RAP1B / Fold change vs veh, LOC101060439 /// RAP1B / RFU, RFX7 / Fold change vs veh, RFX7 / RFU, GTPBP10 / Fold change vs veh, GTPBP10 / RFU, CNEP1R1 / Fold change vs veh, CNEP1R1 / RFU, BIVM-ERCC5 /// ERCC5 / Fold change vs veh, BIVM-ERCC5 /// ERCC5 / RFU, ILF3 / Fold change vs veh, ILF3 / RFU 11762660_at / Fold change /veh 11762660_at / RFU VCAN (11757783_s_at) / Fold change /veh VCAN (11757783_s_at) / RFU DDX43 (11728927_at) / Fold change /veh DDX43 (11728927_at) / RFU KRT8 (11758188_x_at) / Fold change /veh KRT8 (11758188_x_at) / RFU NKD1 (11759106_at) / Fold change /veh NKD1 (11759106_at) / RFU SRD5A1 (11742802_a_at) / Fold change /veh SRD5A1 (11742802_a_at) / RFU TPSAB1 /// TPSB2 (11721975_s_at) / Fold change /veh TPSAB1 /// TPSB2 (11721975_s_at) / RFU GSTM3 (11746129_a_at) / Fold change /veh GSTM3 (11746129_a_at) / RFU IL23R (11737362_x_at) / Fold change /veh IL23R (11737362_x_at) / RFU TMEM51 (11727254_a_at) / Fold change /veh TMEM51 (11727254_a_at) / RFU PIWIL2 (11732686_x_at) / Fold change /veh PIWIL2 (11732686_x_at) / RFU ORM1 (11744905_x_at) / Fold change /veh ORM1 (11744905_x_at) / RFU CCDC152 (11743942_at) / Fold change /veh CCDC152 (11743942_at) / RFU ECM1 (11717891_a_at) / Fold change /veh ECM1 (11717891_a_at) / RFU IL23R (11748794_a_at) / Fold change /veh IL23R (11748794_a_at) / RFU TNFAIP8L3 (11732012_x_at) / Fold change /veh TNFAIP8L3 (11732012_x_at) / RFU MBOAT4 (11741988_at) / Fold change /veh MBOAT4 (11741988_at) / RFU 11764193_at / Fold change /veh 11764193_at / RFU TMEM53 (11763286_at) / Fold change /veh TMEM53 (11763286_at) / RFU MAGEB2 (11727129_at) / Fold change /veh MAGEB2 (11727129_at) / RFU TMEM200A (11744735_a_at) / Fold change /veh TMEM200A (11744735_a_at) / RFU CCDC152 (11751479_a_at) / Fold change /veh CCDC152 (11751479_a_at) / RFU FAM211A (11726209_a_at) / Fold change /veh FAM211A (11726209_a_at) / RFU RGS16 (11746705_a_at) / Fold change /veh RGS16 (11746705_a_at) / RFU VCAN (11755009_s_at) / Fold change /veh VCAN (11755009_s_at) / RFU RHOB (11743442_s_at) / Fold change /veh RHOB (11743442_s_at) / RFU RGS16 (11720943_a_at) / Fold change /veh RGS16 (11720943_a_at) / RFU RGS16 (11720944_at) / Fold change /veh RGS16 (11720944_at) / RFU, VPS4B / Fold change vs veh, VPS4B / RFU, CREB1 / Fold change vs veh, CREB1 / RFU, DNAJC13 / Fold change vs veh, DNAJC13 / RFU, GNAQ / Fold change vs veh, GNAQ / RFU, CDK5R1 / Fold change vs veh, CDK5R1 / RFU, ZRANB3 / Fold change vs veh, ZRANB3 / RFU, CUL4A / Fold change vs veh, CUL4A / RFU, CCNY / Fold change vs veh, CCNY / RFU, UFL1 / Fold change vs veh, UFL1 / RFU, COG3 / Fold change vs veh, COG3 / RFU, DIAPH2 / Fold change vs veh, DIAPH2 / RFU, SKA2 / Fold change vs veh, SKA2 / RFU, AFF3 / Fold change vs veh, AFF3 / RFU, LMF1 / Fold change vs veh, LMF1 / RFU, IPO11 / Fold change vs veh, IPO11 / RFU, DFFB / Fold change vs veh, DFFB / RFU, FOXP1 / Fold change vs veh, FOXP1 / RFU, CARD8 / Fold change vs veh, CARD8 / RFU, STRN3 / Fold change vs veh, STRN3 / RFU, ADK / Fold change vs veh, ADK / RFU, RASSF2 / Fold change vs veh, RASSF2 / RFU, WIPF1 / Fold change vs veh, WIPF1 / RFU, LARP1B / Fold change vs veh, LARP1B / RFU, RASA1 / Fold change vs veh, RASA1 / RFU, RB1 / Fold change vs veh, RB1 / RFU, PPFIA1 / Fold change vs veh, PPFIA1 / RFU, MAT2A / Fold change vs veh, MAT2A / RFU, CCT5 / Fold change vs veh, CCT5 / RFU, WDR92 / Fold change vs veh, WDR92 / RFU, CUX1 / Fold change vs veh, CUX1 / RFU, TTC7A / Fold change vs veh, TTC7A / RFU, TMEM135 / Fold change vs veh, TMEM135 / RFU, DEPTOR / Fold change vs veh, DEPTOR / RFU, CPM / Fold change vs veh, CPM / RFU, DNAJB6 / Fold change vs veh, DNAJB6 / RFU, CACNA2D3 / Fold change vs veh, CACNA2D3 / RFU, DTX4 / Fold change vs veh, DTX4 / RFU, TFCP2 / Fold change vs veh, TFCP2 / RFU, GMCL1 /// GMCL1P1 / Fold change vs veh, GMCL1 /// GMCL1P1 / RFU, AEBP2 / Fold change vs veh, AEBP2 / RFU, SNHG1 /// SNORD22 /// SNORD25 /// SNORD26 /// SNORD27 /// SNORD28 /// SNORD29 /// SNORD31 / Fold change vs veh, SNHG1 /// SNORD22 /// SNORD25 /// SNORD26 /// SNORD27 /// SNORD28 /// SNORD29 /// SNORD31 / Fold change (Aza/veh), C12orf56 (ProbeSet 11735607_a_at) / Fold change (ACY-1035/veh), C12orf56 (ProbeSet 11735607_a_at) / Fold change (Aza/veh), FGFR1OP (ProbeSet 11751329_s_at) / Fold change (ACY-1035/veh), FGFR1OP (ProbeSet 11751329_s_at) / Fold change (Aza/veh), VPS36 (ProbeSet 11739960_a_at) / Fold change (ACY-1035/veh), VPS36 (ProbeSet 11739960_a_at) / RFU SYPL1 (11715823_x_at) / Fold change /veh SYPL1 (11715823_x_at) / RFU IGFBP7 (11715501_s_at) / Fold change /veh IGFBP7 (11715501_s_at) / RFU REEP3 (11722064_at) / Fold change /veh REEP3 (11722064_at) / RFU IGLL1 (11728026_x_at) / Fold change /veh IGLL1 (11728026_x_at): dose or concentration left out as unconfirmed
Settings: ProbeSet 11743929_at; LIST B

With `Nc1ccc(-c2cccs2)cc1NC(=O)c1ccc2c(c1)cc(C1CC1)n2CCN1CCOCC1` [ACY-1035] the “Fold change vs veh, UHRF1BP1L” value was 0.90.
